Read-outs that look alike come from different tables or passages of the source.
What was measured:
CTCL cells = assay: Apoptosis by Annexin V-FITC flow cytometry in CTCL cell lines; type: cell-based, Human; details: Annexin V assay measured by flow cytometry; FIGS. 5A-5D
Procedure: Human CTCL cell lines (Hut78, SeAx, and MyLa) were grown in RPMI 1640 medium supplemented with 10% heat-inactivated fetal bovine serume (FBS), glutamine (2 mM) and streptomycin (100 μg/ml) at 37° C., 5% CO2 and 95% humidity.
Romidepsin was used in a concentration ranging from 0.25 nM to 10 μM. 5-azacitidine was used in a concentration ranging from 500 nM to 10 μM. After 24 to 72 hours of the combined drug treatment, the levels of apoptosis and necrosis were measured by flow cytometry with Annexin V-FITC detection kit.

[1] = cited from earlier work

| SMILES | apoptosis (CTCL cells) | solubility ([1]; acetone, ethanol and methyl ketone) | solubility ([1]; dimethylsulfoxide (DMSO)) | solubility ([1]; ethanol/water (50/50), propylene glycol and polyethylene glycol) | solubility ([1]; water, water-saturated octanol, 5% dextrose in water, N-methyl-2-pyrrolidone, normal saline and 5% Tween 80 in water) |
| --- | --- | --- | --- | --- | --- |
| Nc1ncn([C@@H]2O[C@H](CO)[C@@H](O)[C@H]2O)c(=O)n1 [5-azacitidine, 4-amino-1-β-D-ribofuranozyl-s-triazin-2(1H)-one] | 21.4% | insoluble | soluble | slightly soluble | sparingly soluble |
| C/C=C1\NC(=O)[C@H]2CSSCC/C=C/[C@H](CC(=O)N[C@H](C(C)C)C(=O)N2)OC(=O)[C@H](C(C)C)NC1=O [romidepsin, (1S,4S,7Z,10S,16E,21R)-7-ethylidene-4,2′-bis(1-methylethyl)-2-oxa-12,13-dithia-5,8,20,23-tetrazabicyclo[8.7.6]tricos-16-ene-3,6,9,19,22-pentone] | 18.8% |  |  |  |  |

From US20130085115A1, “COMBINATION THERAPY FOR LYMPHOMA” (Celgene Corporation, priority 2011, published 2013)
